Laboratory results: ChEMBL document CHEMBL3832552, “DailyMed|setid=e3780ba1-46ef-410c-b2fc-f1ffbfb598f3 | SULAR - nisoldipine tablet, film coated, extended release|Physicians Total Care, Inc”

Assay: Evaluation of pharmacokinetic parameters for Nisoldipine following oral administration of 17 to 51 mg of Nisoldipine extended release tablets.
Type: ADME, organism-based
Details: human, in vivo, dose 17-51 mg, dosed compound id 7, dosed compound name NISOLDIPINE, tissue Plasma

`COC(=O)C1=C(C)NC(C)=C(C(=O)OCC(C)C)C1c1ccccc1[N+](=O)[O-]` (stereo not drawn) [NISOLDIPINE] showed a Tmax of 9.2 h, a bioavailability of 5% and a half-life (read-out: t1/2-elimination (converted)) of 13.7 h.
